Measurements published in US10000775B2, “Biosynthesis of 1-undecene and related terminal olefins” (The Regents of the University of California, priority 2013, dated 2018).

Key:
Format in all cases: biochemical, Pseudomonas fluorescens Pf-5
PFL_4321 [1] = assay: In vitro enzymatic assays of PFL_4321 with fatty acid substrates or analogs; conditions: purified PFL_4321, Fe2+, ascorbic acid
Method: A typical condition is as follows: 1 mL of reaction mixture contains 50 mM MES buffer (pH 6.2), 300 mM NaCl, 100 μM (NH4)2Fe(SO4)2, 1 mM ascorbic acid, 100 μM fatty acid substrate or analogs, and 10 μM enzyme. The reaction was performed in a sealed headspace vial at 30° C., initiated by adding lauric acid and quenched by injecting equal volume of 5 M NaOH. 1-Undecene production was analyzed and quantified by using the SPME-GCMS method. To determine the kinetic parameters of PFL_4321 on lauric acid, initial velocities at 1, 10, 20, 50, 100, and 150 μM of lauric acid were measured (25 mM lauric acid solution was prepared by adding 0.5% tergitol and heating at 65° C. for 10 min). The reactions were quenched at 2, 4, 6, 8, and 10 seconds, and the acquired turnover rates were fit to the Michaelis-Menten equation using GraphPad Prism to obtain kcat and Km. The kcat and Km of myristic acid and capric acid were determined similarly.
To acquire the kinetic parameters of PFL_4321 on 11-aminoundecanoic acid and 12-aminododecanoic acid, initial velocities at 25, 50, 100, 150, 200, 250, 500, and 700 μM were measured. 50 μl of aliquots of the reaction were quenched at 1, 1.5, 2, 2.5, 3, 3.5, 4, 4.5, 5, 5.5, and 6 minutes by adding 100 μl of acetonitrile. Denatured enzymes were removed by centrifugation at 15,000 g for 20 min. LC-HRMS analysis was carried out on an Agilent Technologies 6520 Accurate-Mass Q-TOF LC-MS instrument equipped with an Agilent Eclipse Plus C18 column (3.5 μm, 4.6×100 mm). 10 μL of the solution was injected into LC-HRMS and a linear gradient of 55 to 95% CH3CN (vol/vol) over 15 min in H2O with 0.1% (vol/vol) formic acid at a flow rate of 0.5 mL/min was used for analysis. The exact masses of aminoundec-1-ene and aminodec-1-ene were extracted, and the peaks were integrated and compared with the standard compounds.

PFL_4321 [2] = assay: Metal ion requirement of PFL_4321 in vitro (1-undecene production from lauric acid)
Method: Additional in vitro assays were performed with PFL_4321 using lauric acid, its esters, or thioesters as potential substrates. […] PFL_4321 was incubated with lauric acid in the presence of various metal ions, including Fe^2+, Fe^3+, Mg^2+, Ca^2+, Mn^2+, Co^2+, Ni^2+, Cu^2+, and Zn^2+.

PFL_4321 [3] = assay: Test of H2O2 as a possible substrate
Method: To examine whether the H2O2/Fe^3+ or the H2O2/Fe^2+ system provides for the PFL_4321 activity, anaerobic enzymatic reactions in the glove box were performed. The deoxygenated reaction mixture contained 50 mM MES buffer (pH 6.2), 100 mM NaCl, 100 μM PFL_4321, 100 μM either FeCl3 or (NH4)2Fe(SO4)2, 1 mM LA, and various amount of H2O2 (100, 200, 500, 1000, 5000 μM), and 1-undecene production was analyzed. The aerobic reaction was carried out under similar conditions except that the O2 was provided by mixing with the equal volume of O2-saturated buffer solution (50 mM MES, pH 6.2, 100 mM NaCl).

PFL_4321 [4] = assay: Survey of reductive cofactors/cosubstrates under iron-limited conditions; conditions: iron-limiting conditions; 1 mM reductive cofactor
Method: FIG. 7 illustrates a comparison of 1-undecene production by using various reductive cofactors/cosubstrates under iron-limited conditions. 2.5 mL of reaction mixture contains 100 μM MES (pH 6.1), 300 mM NaCl, 50 μM lauric acid, 5 μM PFL_4321, 0.1 μM (NH4)2Fe(SO4)2, and 1 mM reductive cofactor. When needed, 40 μM FAD, FMN, ferredoxin, or phenazine, and 20 μM flavin reductase (FL-R) or ferredoxin reductase (FR) were added.
A survey was conducted to identify the possible reductive cofactor/cosubstrates according to the well-studied oxygen-activating iron-dependent oxygenases, including but not limited to α-ketoglutarate, ascorbic acid, glutathione, cysteine, nicotinamides, flavins, ferredoxin (F. H. Vaillancourt et al., Nature 436, 1191, 2005; W. C. Chang et al., Nature 496, 114, 2013; L. M. Mirica et al., J Am Chem Soc 130, 8122, 2008; P. C. Bruijnincx et al., Chem Soc Rev 37, 2716, 2008). […] Accordingly, ascorbic acid was included in all of the following in vitro assays and the kinetic parameters of PFL_4321 toward lauric acid (C12) were determined (FIG. 8).

PFL_4321 [5] = assay: Reductive co-substrate screening, with chlorite dismutase coupled assay; conditions: coupled with chlorite dismutase reaction to generate O2 in situ
Method: FIG. 28 illustrates a comparison of 1-undecene production by using various reductive cofactors/cosubstrates in the presence of excessive O2 provided by the coupled […] dismutase reaction. The reaction mixture contains 100 μM MES (pH 6.1), 300 mM NaCl, 1 mM lauric acid (dissolved in 0.5% tergitol), 100 μM PFL_4321, 100 μM (NH4)2Fe(SO4)2, 2 μM chlorite dismutase, 4 mM sodium chlorite, and 2 mM reductive cofactor/co-substrates. When needed, 40 μM FAD, FMN, ferredoxin, PQQ, or PMS, and 20 μM flavin reductase (FL-R) or ferredoxin reductase (FR) were added. 1-undecene production was analyzed after reacting for 100 min. Error bars represent standard deviations from at least three independently performed experiments.
To survey the possible reductive co-substrates, the oxygenated buffer solution (50 mM MES, pH 6.2, 100 mM NaCl) was mixed with an equal volume of an O2-free solution containing 50 mM MES buffer (pH 6.2), 100 mM NaCl, 200 μM PFL_4321, 200 μM (NH4)2Fe(SO4)2, 2 mM LA, and 4 mM of the reductive co-substrate, so that the final mixture contained 50 mM MES buffer (pH 6.2), 100 mM NaCl, 100 μM PFL_4321, 100 μM (NH4)2Fe(SO4)2, 1 mM LA, and 2 mM of the reductive co-substrate. The reaction was carried out in a sealed GC vial due to the semi-volatility of 1-undecene. […]

Compound | conversion of the substrate by PFL_4321 (to the corresponding minus-1-carbon 1-alkene or other product) (PFL_4321 [1]) | also measured
O=C(O)CCCCCCCCCCCBr [12-bromododecanoic acid] | catalyzed the conversion | –
CCCCCCCC(=O)O [caprylic acid] | failed to act | –
CCCCCCCCCCC(O)C(=O)O (stereo not drawn) [α-hydroxydodecanoic acid] | transformed | –
CCCCCCCCC(C)CCC(=O)O (centres unmarked) [4-methyldodecanoic acid] | converted to their corresponding terminal olefins | –
C#CCCCCCCCCC(=O)O [10-undecynoic acid] | catalyzed the conversion | –
[D23]lauric acid | led to the production of [D22]1-undecene | –
O=C(O)CN(CCN(CC(=O)O)CC(=O)O)CC(=O)O [EDTA, ethylenediaminetetraacetic acid] | – | effect on 1-undecene formation by PFL_4321, lauric acid and E. coli crude extract (PFL_4321 [2]; addition of chelating agent): quenched
[2H]C([2H])(CCCCCCCCCC)C(=O)O [[α,α-D2]lauric acid] | led to the production of 1-undecene retaining both deuterium atoms | –
CCCCCCCCCCCCCCCC(=O)O [palmitic acid] | failed to act | –
CCCCCCCCCCCCCC(=O)O [myristic acid] | converted | –
NCCCCCCCCCCCC(=O)O [12-aminododecanoic acid] | catalyzed the conversion | –
O=S(O)S(=O)O [dithionite] | – | effect on 1-undecene production by PFL_4321 (PFL_4321 [3]; added to reduce O2 to H2O2 in situ): inhibited
CCCCCCCCCC(=O)O [capric acid] | converted | –
CC(C)CCCCCCCCCC(=O)O [11-methyldodecanoic acid] | converted to their corresponding terminal olefins | –
[Fe+2] [Fe^2+] | – | 1-undecene production by PFL_4321 with lauric acid in the presence of the metal ion (PFL_4321 [2]; PFL_4321 incubated with lauric acid and metal ion): elicited the 1-undecene production
NCCCCCCCCCCC(=O)O [11-aminoundecanoic acid] | catalyzed the conversion | –
N[C@@H](CS)C(=O)O [cysteine] | – | effect on the yield of 1-undecene (PFL_4321 [4]): modest effect
OO [H2O2] | – | 1-undecene formation in the presence of H2O2 (PFL_4321 [3]; anaerobic reactions with either PFL_4321-Fe(III) or PFL_4321-Fe(II)): no 1-undecene was formed; 1-undecene formation in the presence of H2O2 (PFL_4321 [3]; both H2O2 and O2, PFL_4321-Fe(III)): no 1-undecene was formed; effect of H2O2 on 1-undecene formation (PFL_4321 [3]; reaction containing O2 and PFL_4321-Fe(II)): did not promote
O=C(O)CCCCCCCCCCBr [11-bromoundecanoic acid] | catalyzed the conversion | –
O=C1O[C@H]([C@@H](O)CO)C(O)=C1O [ascorbic acid] | – | multiple turnovers for PFL_4321 in vitro (PFL_4321 [5]): allowed for multiple turnovers; rate of 1-undecene production with multiple turnovers (PFL_4321 [5]): four; effect on the yield of 1-undecene (PFL_4321 [4]): significantly increased
CCCCCCCCCC=CC(=O)O [2,3-dodecenoic acid] | no activity | –
CCCCCCCCCC(O)CC(=O)O (stereo not drawn) [β-hydroxydodecanoic acid] | no activity | –
